Laboratory results from publication PMC11227536, “Modulation of the Meisenheimer complex metabolism of nitro-benzothiazinones by targeted C-6 substitution” (Communications Chemistry, 2024).

System: RAW 264.7 cells
Experiment: Hydride Meisenheimer complex (HMC) formation propensity assay, whole cell
Format: in vitro ADME, murine
Settings: whole cell in vitro assay, relative to BTZ-043 (1)
Source text: As the main goal of our work, we focused on the impact of C-6 substituents on the propensity to form HMC in our recently developed whole cell in vitro assay. Following our standardized protocol, all measurements were normalized relative to BTZ-043 (1). Obtained HMC formation propensities (Table S5) were transformed into their negative decadic logarithm (pHMC) to ease data visualization and subsequent processing during chemoinformatics investigations (Fig. 5). […] In the case of esters, a plausible pattern according to the substituent size was observed. […] Similarly, dimethyl amide 7c and nitrile 9 produced a 14- and 12-fold larger ratio of HMC compared to 1, respectively. Esters 6a–e and oxazoline 7e were also more prone to HMC formation than 1, albeit to a considerably lesser extent (2.5–6-fold).
3. Hydride Meisenheimer complex formation propensity assay
The assay was performed as described previously. 6
RAW 264.7 cell cultivation […]
Samples were analyzed with a Thermo Vanquish Horizon UHPLC system (Thermo Fisher Scientific, Bremen, Germany) coupled to a Thermo Scientific QExactive Orbitrap mass spectrometer (Thermo Fisher Scientific, Bremen, Germany) by using a UPLC column (ACQUITY HSS T3, Waters, 1.8 µm particle size, 2.1 × 50 mm). […]

Structure (SMILES)	HMC formation (in words)
C[C@H]1COC2(CCN(c3nc(=O)c4cc(C(=O)O)cc([N+](=O)[O-])c4s3)CC2)O1 [Compound 8]	Traces
C[C@H]1COC2(CCN(c3nc(=O)c4cccc([N+](=O)[O-])c4s3)CC2)O1 [Compound 23]	no detectable HMC formation
